# Target: T1, rat EP4 receptor (Rattus norvegicus, UniProt P43114)
# T1 construct: expressed in transfected cells
# Assay: Cyclic AMP elevation in 293S cell lines stably overexpressing recombinant rat EP4 receptors
# Type: cell-based
# Conditions: 293S cells expressing rat EP4, 1 mM IBMX, 12 minutes at 37° C.; read-out: EC50 in the cAMP (rat EP4) elevation assay
# Source text: Determination of Cyclic AMP Elevation in 293S Cell Lines Stably Overexpressing Recombinant Rat EP4 Receptors Assay
# cDNA representing the complete open reading frame of the rat EP4 receptor is generated by reverse transcriptase polymerase chain reaction using oligonucleotide primers based on published sequences. The full length coding sequence for the rat EP4 receptor is made in accordance with the procedure in Sando et al., Biochem. Biophys. Res. Comm. 1994, 200, 1329-1333, and RNA from rat kidney (EP4) as templates. 293S cells are transfected with the cloned rat EP4 receptor in pcDNA3 by lipid mediated transfection. Stable cell lines expressing the rat EP4 receptor are established following selection of transfected cells with Geneticin® (Invitrogen Corporation, Carlsbad, Calif.).
# Clonal cell lines expressing the maximal number of receptors are chosen following a whole cell ^3H-PGE2 binding assay using unlabeled PGE2 as a competitor. […] Constitutive expression of the receptor in parental 293-S cells is negligible. A stable cell line containing the rat EP4 receptor is grown in Dulbecco's Mosified Eagle Medium/F12 (DMEM/F12) containing 10% fetal bovine serum and G418 (500 μg/ml) to 80% confluency.
# cAMP responses in the 293-S/EP4 lines are determined by detaching cells from culture flasks in 1 ml of calcium (Ca++) and magnesium (Mg++) deficient phosphate buffered saline (PBS) via vigorous pounding and then rinsing the cells with calcium (Ca++) and magnesium (Mg++) deficient phosphate buffered saline (PBS). The cells are resuspended in MEM (Minimum Essential Medium), 1% BSA (bovine serum albumin), 50 mM HEPES (N-[2-Hydroxyethyl]piperazine-N′-[2-ethanesulfonic acid]) at 37° C. The cell suspension is counted on a hemacytometer and diluted by adding MEM (Minimum Essential Medium) to a final concentration of 1×10^6 cells/ml, and adding 3-isobutyl-1-methylxanthine (IBMX) to a final concentration of 1 mM. 200 microliters of cell suspension is immediately aliquoted into individual tubes and incubated for 10 minutes, uncovered, at 37° C., 5% CO2, 95% relative humidity. The compound of Formula I or II to be tested in either dimethylsulfoxide (DMSO) or ethanol is then added to cells at 1:100 dilutions such that the final DMSO or ethanol concentration is 1%. Typically, the cells are treated with 6-8 different concentrations (in 1 log increments, such as those described below) of the compound of Formula I or II. Typical concentrations of the compound of Formula I or II in this assay are between 10^−5M to 10^−10M. For example, a six point compound dose response assay tests the compound of Formula I or II at concentrations of 10^−5M, 10^−6M, 10^−7M, 10^−8M, 10^−9M and 10^—10M. Immediately after adding the test compound, the tubes are covered, mixed by inverting two times, and incubated at 37° C. for 12 minutes. Samples are then lysed by incubation at 100° C. for 10 minutes and immediately cooled on ice for 5 minutes to approximately 4° C. Cellular debris is pelleted by centrifugation at 3500×g for 5 minutes at approximately 4° C., and cleared lysates are transferred to fresh tubes. cAMP concentrations are determined using a commercially available ^125I-cAMP radioimmunoassay (RIA) kit (NEK-033, Perkin-Elmer Life Sciences, Inc., Boston, Mass.). The cleared lysates are diluted 1:100 in cAMP RIA assay buffer (included in kit) and centrifuged again. 50 microliters of the resulting supernatant is transferred to a 12×75 mm glass tube and data is collected by scintillation counting using a Wallac Cobra II Gamma Counter (Perkin-Elmer Wallac, Inc., Gaithersburg, Md.). EC50 calculations are performed on a calculator using linear regression analysis on the linear portion of the dose response curves or using Data Fitter.
# T1 sequence (P43114 whole entry): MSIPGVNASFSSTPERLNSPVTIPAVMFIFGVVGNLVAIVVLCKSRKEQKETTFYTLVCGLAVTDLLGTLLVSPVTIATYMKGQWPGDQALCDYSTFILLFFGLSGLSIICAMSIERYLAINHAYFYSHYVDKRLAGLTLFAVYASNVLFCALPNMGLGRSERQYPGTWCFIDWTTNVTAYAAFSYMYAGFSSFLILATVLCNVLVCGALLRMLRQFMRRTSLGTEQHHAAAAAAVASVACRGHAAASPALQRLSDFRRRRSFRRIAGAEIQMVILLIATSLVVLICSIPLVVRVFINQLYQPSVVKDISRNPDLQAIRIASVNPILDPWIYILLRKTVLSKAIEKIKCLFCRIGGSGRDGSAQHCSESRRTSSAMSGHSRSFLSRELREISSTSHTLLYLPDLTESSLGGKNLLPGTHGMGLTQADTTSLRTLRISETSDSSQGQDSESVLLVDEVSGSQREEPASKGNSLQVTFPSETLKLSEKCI
row,EC50 [nM],SMILES
1,8.8,"O=C(O)CCCCCCN1C(=O)CC[C@@H]1CC[C@@H](O)Cc1cccc(Cl)c1 [Example 1, 7-{2S-[4-(3-Chloro-phenyl)-3R-hydroxy-butyl]-5-oxo-pyrrolidin-1-yl}-heptanoic acid]"
2,13.2,"O=C(O)CCCCCCN1C(=O)CC[C@@H]1CC[C@@H](O)Cc1cccc(C(F)(F)F)c1 [Example 2, 7-{2S-[3R-hydroxy-4-(3-trifluoromethyl-phenyl)-butyl]-5-oxo-pyrrolidin-1-yl}-heptanoic acid]"
3,33.1,"O=C1CC[C@H](CCC(O)Cc2cccc(Cl)c2)N1CCCCCCc1nn[nH]n1 (stereo partly drawn) [Example 3, 5S-[4-(3-Chloro-phenyl)-3-hydroxy-butyl]-1-[6-(2H-tetrazol-5-yl)-hexyl]-pyrrolidin-2-one]"
4,70.2,"O=C1CC[C@H](CC[C@@H](O)Cc2cccc(C(F)(F)F)c2)N1CCCCCCc1nn[nH]n1 [Example 4, 5S-[3R-Hydroxy-4-(3-trifluoromethyl-phenyl)-butyl]-1-[6-(2H-tetrazol-5-yl)-hexyl]-pyrrolidin-2-one]"
5,175,"O=C1CCC(CCC(O)Cc2cccc(-c3ccccc3)c2)N1CCCCCCc1nn[nH]n1 (stereo not drawn) [Example 6, 5-(4-Biphenyl-3-yl-3-hydroxy-butyl)-1-[6-(2H-tetrazol-5-yl)-hexyl]-pyrrolidin-2-one]"
6,32.5,"O=C(O)CCCCCCN1C(=O)CCC1CCC(O)Cc1ccccc1 (stereo not drawn) [Example 9, 7-(2-(3-hydroxy-4-phenyl-butyl)-5-oxo-pyrrolidin-1-yl)-heptanoic acid]"
